Source: patent publication US20050112573A1, “Method of detecting toxic substance” (priority 2001, published 2005)
Like-named read-outs stand apart in the source and are kept apart here.

Legend:
Format in all cases: cell-based, Saccharomyces cerevisiae W303
[1] = system: promoter of yeast gene YCR102c
Description: (§1) The inventors of the present application understood that the induction of certain yeast genes by toxic substances is caused by the activation of the promoters of the genes by the toxic substances. Thus, the inventors prepared a vector that comprised a polynucleotide sequence comprising the promoter of the yeast gene, which sequence is operably linked to a polynucleotide encoding a marker protein; and transformed yeast cells with the vector. […] The working examples hereinafter illustrate the preparation of such vectors, transformation of yeast cells by use of said vectors, and the detection of toxic substances by use of the transformed cells.
(§2) Promoter assay is a method for determining variations of the level of intracellular genes without destroying cells on the basis of the level of expressed marker genes instead of the expressed mRNA. The gene selected to detect a chemical substance is expressed in the absence of chemical substances, and thus a marker protein also occurs in the absence of chemical substances. In the method according to the present invention, the behavior of yeast genes on the addition of test materials is determined on the basis of the level of expressed marker protein so that the presence or the absence, and the kind of toxic chemical substances are predicted. Thus, it is desired that the production of marker proteins is lower in the absence of chemical substances, and the production of marker proteins is higher in the presence of chemical substances.
(§3) Type YEp shuttle vector pYES2 (pYES2, Cat no: V825-20, Invirtogen Corporation, USA), which can be replicated both in E. coli. and yeast was used as vector (R. W. Old, S. B. Primrose Principles of Gene Manipulation 5th Ed., BAIFUKAN CO., LTD, pp138-165, pp.234-263, 2000). The portion of vector PQBI 63 (Cat no.54-0082, Wako Pure Chemical Industries, Ltd.) corresponding to a marker protein GFP was used as the polynucleotide encoding GFP (SEQ ID No: 6). First, the GFP polynucleotide was inserted into the multiple cloning sites of pYES2 to give a vector. Thereafter, the GALL promoter of pYES2 was replaced with the polynucleotide comprising the promoter sequence of the intended yeast gene YCR102c (SEQ ID No: 2) to give an intended plasmid vector. Suitable restriction enzymes were selected, and the insertion of the polynucleotide comprising GFP and the promoter sequence was conducted.
(§4) Next, the yeast Saccharomyces cerevisiae W303 was transformed with the resultant plasmid vector according to the following procedures: • 1) Incubating the yeast Saccharomyces cerevisiae W303 in 200 ml of SD medium under shaking until OD 660 reaches 0.5; • 2) Suspending the collected cells in 5 ml of TE-buffer; • 3) Adding 250 μL of 2.5M lithium acetate; • 4) Dispending each 300 μl, adding 10 μl of above plasmid vector thereto, then incubating the suspensions at 30° C. for 30 minutes; • 5) Adding 700 μl of 50% PEG4000, and incubating the mixture under shaking at 30° C. for 60 minutes; • 6) Giving heat shock (42° C., 5 minutes), and then immediately cooling the mixture; • 7) Washing the mixture twice with 1M sorbitol; and • 8) Seeding it on agar plates made of minimum essential medium.
(§5) The cells of SC-YCR102C-pQBI as prepared in Example 3 were contacted to one of the following compounds. The yeast cells SC-YCR102C-pQBI were incubated at 25° C. in SD medium (Yeast nitrogen base without amino acids (Difco 0919-15)+glucose+amino acids (adenine, histidine, tryptophan)). One of toxic chemical substances as shown below was added to the cells at logarithmic growth phase, and then the cells were further incubated for two hours.

[2] = system: promoter of yeast gene YLL057c; details: for expression of GFP: SC-YLL057C-pQBI cells, summary of Table 13
Description: as §1, §2
as §3, with “YLL057c” for “YCR102c”, “4)” for “2)”
as §4
as §5, with “SC-YLL057C-pQBI” for “SC-YCR102C-pQBI”, “5” for “3”

[3] = system: promoter of yeast gene YLR303w; details: for expression of GFP: SC-YCR303W-pQBI cells (so in the source), summary of Table 14
Description: as §1, §2
as §3, with “pQBI” for “PQBI”, “GAL1” for “GALL”, “YLR303w” for “YCR102c”, “5)” for “2)”
as §4
as §5, with “SC-YCR303W-pQBI” for “SC-YCR102C-pQBI”, “6” for “3”

[4] = cells SC-YCR102C-pQBI, 2 hours incubation with the substance at the concentration printed in its row (column Concentrations), GFP fluorescence vs control without chemical
[5] = cells SC-YLL057C-pQBI, 2 hours incubation with the substance at the concentration printed in its row (column Concentrations), GFP fluorescence vs control without chemical
[6] = cells SC-YCR303W-pQBI (so in the source), 2 hours incubation with the substance at the concentration printed in its row (column Concentrations), GFP fluorescence vs control without chemical

Molecule	Fluorescence [1]	Fluorescence [2]	Fluorescence [3]	Fluorescence [1, 4]	Fluorescence [2, 5]	expression of GFP [3]	expression of GFP ([1]; SC-YCR102C-pQBI cells, summary of Table 11)	expression of GFP [2]	Fluorescence [3, 6]
[Cl][Ni][Cl] [nickel (II) chloride]	− (key: −: the number of the cells having a higher fluorescence than the control was under 1%; +: between 1% and 2%; ++: 2% or more)	− (key: −: the number of the cells having a higher fluorescence than the control was under 1%; +: between 1% and 2%; ++: 2% or more)	− (key: −: the number of the cells having a higher fluorescence than the control was under 1%; +: between 1% and 2%; ++: 2% or more)	–	–	–	–	–	–
manganese ethylenebis(dithiocarbamate) [(8)]	–	–	–	− (the number of the cells having a higher fluorescence than the control was under 1%)	− (the number of the cells having a higher fluorescence than the control was under 1%)	induced the expression of GFP	–	–	–
O=S(=O)([O-])[O-].[Cu+2] [copper sulfate (II)]	− (key: −: the number of the cells having a higher fluorescence than the control was under 1%; +: between 1% and 2%; ++: 2% or more)	− (key: −: the number of the cells having a higher fluorescence than the control was under 1%; +: between 1% and 2%; ++: 2% or more)	− (key: −: the number of the cells having a higher fluorescence than the control was under 1%; +: between 1% and 2%; ++: 2% or more)	–	–	–	–	–	–
CN(C)C(=S)SSC(=S)N(C)C [(10), Tetramethylthiuram disulfide]	–	–	–	–	–	–	induced the expression of GFP	–	–
Na2As [(1)]	–	–	–	− (the number of the cells having a higher fluorescence than the control was under 1%)	++ (2% or more)	induced the expression of GFP	–	induced the expression of GFP	++ (2% or more)
γ-hexachlorocyclohexane [(7)]	–	–	–	− (the number of the cells having a higher fluorescence than the control was under 1%)	− (the number of the cells having a higher fluorescence than the control was under 1%)	–	–	–	− (the number of the cells having a higher fluorescence than the control was under 1%)
[Cl][Sn]([c]1ccccc1)([c]1ccccc1)[c]1ccccc1 [triphenyltin chloride]	–	–	–	− (the number of the cells having a higher fluorescence than the control was under 1%)	− (the number of the cells having a higher fluorescence than the control was under 1%)	–	–	–	− (the number of the cells having a higher fluorescence than the control was under 1%)
CdCl2 [(2)]	–	–	–	− (the number of the cells having a higher fluorescence than the control was under 1%)	++ (2% or more)	induced the expression of GFP	–	induced the expression of GFP	++ (2% or more)
HgCl2 [(3)]	–	–	–	− (the number of the cells having a higher fluorescence than the control was under 1%)	− (the number of the cells having a higher fluorescence than the control was under 1%)	induced the expression of GFP	–	–	++ (2% or more)
CCCCC(CC)COC(=O)c1ccccc1C(=O)OCC(CC)CCCC (stereo not drawn)	–	–	–	− (the number of the cells having a higher fluorescence than the control was under 1%)	− (the number of the cells having a higher fluorescence than the control was under 1%)	–	–	–	− (the number of the cells having a higher fluorescence than the control was under 1%)
[CH3][Hg][Cl] [methylmercury chloride]	–	–	–	− (the number of the cells having a higher fluorescence than the control was under 1%)	− (the number of the cells having a higher fluorescence than the control was under 1%)	–	–	–	− (the number of the cells having a higher fluorescence than the control was under 1%)
CCN(CC)C(=O)SCc1ccc(Cl)cc1 [S-4-Chlorobenzyl-N,N-diethylthiocarbamate]	–	–	–	− (the number of the cells having a higher fluorescence than the control was under 1%)	− (the number of the cells having a higher fluorescence than the control was under 1%)	–	–	–	− (the number of the cells having a higher fluorescence than the control was under 1%)
CCOC(=O)CC(SP(=S)(OC)OC)C(=O)OCC (stereo not drawn) [malathon]	–	–	–	− (the number of the cells having a higher fluorescence than the control was under 1%)	− (the number of the cells having a higher fluorescence than the control was under 1%)	–	–	–	− (the number of the cells having a higher fluorescence than the control was under 1%)
[K+].[K+].[O]=[Cr](=[O])([O-])[O][Cr](=[O])(=[O])[O-] [potassium bichromate]	–	–	–	− (the number of the cells having a higher fluorescence than the control was under 1%)	− (the number of the cells having a higher fluorescence than the control was under 1%)	–	–	–	− (the number of the cells having a higher fluorescence than the control was under 1%)
